Assay results reported in patent publication US20260123631A1, “NATURAL PORPHIN SALT AND USE THEREOF AS PLANT GROWTH REGULATOR AND PLANT IMMUNITY INDUCER” (NANJING BOSTEC BIOLOGICAL ENGINEERING CO., LTD, priority 2022, published 2026).

Key:
[1] = Water solubility of the prepared salts; format: physicochemical
[2] = Stability of sample solutions in the dark/under light; format: physicochemical; details: under light 30,000 lux, salts in water, acidic reference in 30% to 50% ethanol
In short: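 Salt in water, or acidic reference in 30–50% aqueous ethanol, at about 10 ppm; UV absorbance scanned 200–800 nm at 0, 1, 2, 3 h, stored at 25° C dark or under 30,000 lux light. Relative content = max-peak absorbance at each time divided by 0 h value (100%).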

chlorophyllase = assay: In vitro chlorophyllase-inhibiting activity test; format: biochemical, mung bean; details: substrate chlorophyll 120 ppm, sample 0.3 ppm to 30.0 ppm
Experimental: A chlorophyllase inhibition rate of a salt sample solution at each concentration was determined, and an IC50 value for a chlorophyllase inhibition activity of a salt sample was calculated.

mung bean seedlings = assay: Inducing adventitious roots from hypocotyls of mung bean; format: in vivo; details: day 7
Experimental: Test solution preparation: 8 mL of a commercially-available STANLEY universal hydroponic nutrient solution was taken and diluted with tap water to 3,200 mL (400-fold dilution) to produce a dilute nutrient solution. An appropriate amount of each of salt samples such as protoporphyrin disodium and potassium chlorhematin was weighed and prepared with the dilute nutrient solution into 0.010 ppm and 0.1 ppm sample test solutions, and 150 mL of each test solution was taken. 150 mL of the dilute nutrient solution was taken as a blank control. The test solutions and the control solution were placed in brown bottles, and the brown bottles were sealed with a black film. Mung bean seedlings with uniform growth and a seedling height of 7 cm to 8 cm were selected, and cut at 3 cm below a first true leaf node. 8 mung bean seedlings were inserted into each bottle (with roots removed) to make lower radicles soaked in a solution. Mung bean seedlings were treated at room temperature of 20° C. to 25° C. for 7 d in total, during which the solution was changed every 2 d. On day 2 to day 3 of the treatment, there was a significant difference. On day 7, the observation and determination were conducted. An average adventitious root number and an average total adventitious root length for each seedling were calculated, and results were shown in the following table: […]

wheat = assay: Spraying on wheat to increase a yield; format: in vivo, wheat (Huaimai 35)
Experimental: Crop: Huaimai 35. […] On Jun. 11, 2021, the harvesting was conducted throughout the field at a time.

rice = assay: Germination of rice under salt stress; format: in vivo, rice (Nanjing 9108); details: sample 0.2 ppm; for Increase of root weight-promoting speed / Increase of root-shoot ratio / Increase of seedling weight-promoting rate: versus 4.5 g/L NaCl without sample
Experimental: The selected full seeds of rice (variety: Nanjing 9108) were soaked in a sodium hypochlorite solution to allow disinfection for 2 min to 3 min, and then rinsed with clear water twice to three times. After the rinsing, 50 full seeds were selected and fully immersed in a prepared seed-soaking solution at 25° C. for 48 h. The soaked seeds were transferred to a plastic box with two paper towel layers tiled. The germination bed was moistened with a salt solution at a concentration corresponding to each treatment. The seeds were incubated in a 25° C. incubator with a light cycle of 12 h light/12 h dark and a humidity of 70%, during which the germination bed was always kept moist. The germination of rice seeds and the growth of seedlings were observed and recorded day by day. A germination rate of each treatment was recorded on […], and a number of normal seedlings was counted on day 14. 10 seeds were randomly selected from each treatment to measure a seedling length, a root length, a root number, a root weight, and a seedling weight. The germination energy was counted on day 5 and a germination rate was counted on day 14.

rice seedlings = assay: Spraying on drought rice seedlings; format: in vivo, rice (Huiliangyou 473)
Experimental: Method: Full rice seeds were selected, disinfected with 6% sodium hypochlorite for 2 min to 3 min, then rinsed with water, soaked in clear water at room temperature (30±1° C.) until the germination was started, and then transferred to seedling trays to raise seedlings. About 15 d later, rice seedlings with consistent growth were selected and transferred into buckets to allow further growth, with 3 holes per bucket and 2 plants per hole. A soil was a clay loam. Before transplanting, the soil was crushed, sieved, and thoroughly mixed. […] The water, fertilizers, pests, and diseases during the cultivation in the seedling trays were uniformly managed.
Drought model: The transplanting was conducted on Aug. 18, 2020. The next day (August 19), the natural drought and sample-spraying treatment were started for rice seedlings. A soil moisture content was determined by the NY/T 52-1987 method.
After the drought stress and sample-spraying were started at a tillering stage (September 19) of rice, a chlorophyll content (mg/g) in leaves was detected twice on day 3 and day 6 (September 21 and September 25), respectively.

[3] = 3 mg/mu sprayed 3 times (0.2, 0.1, 0.1 ppm)

potassium iron chlorin [Example 20]
solubility in water [1]: easily soluble | Relative content ([2]; 1 h): 70.13% | Relative content ([2]; 2 h): 62.66% | Relative content ([2]; 3 h): 59.17% | IC50 for chlorophyllase inhibition activity (chlorophyllase): 5.07 ppm | Adventitious root number (mung bean seedlings; 0.01 ppm): 15.05 root/seedling | Total adventitious root length (mung bean seedlings; 0.01 ppm): 24.56 cm/seedling | Adventitious root number (mung bean seedlings; 0.1 ppm): 14.54 root/seedling | Total adventitious root length (mung bean seedlings; 0.1 ppm): 23.55 cm/seedling | Actual yield per mu (wheat; [3]): 601.5 kg | Ear number per mu (wheat; [3]): 31.9 10,000 | Grain number per ear (wheat; [3]): 35.0 grains/ear | Thousand-grain weight (wheat; [3]): 53.9 g | Yield increase rate per mu (wheat; 3 mg/mu sprayed 3 times, versus clear water): 7.60% | Average germination time (rice; NaCl 0 g/L): 3.10 D | Dry root weight (rice; NaCl 0 g/L): 0.0587 g/plant | Dry seedling weight (rice; NaCl 0 g/L): 0.0543 g | First leaf length (rice; NaCl 0 g/L): 3.84 cm | Germination energy (rice; NaCl 0 g/L): 98.0% | Germination index (rice; NaCl 0 g/L): 52.21% | Germination rate (rice; NaCl 0 g/L): 98.0% | Root length (rice; NaCl 0 g/L): 7.00 cm | Root number (rice; NaCl 0 g/L): 8.67 roots/plant | Root weight-promoting speed (rice; NaCl 0 g/L): 4.19 mg/day | Root-shoot ratio (rice; NaCl 0 g/L): 1.082 | Seedling height (rice; NaCl 0 g/L): 6.83 cm | Seedling weight-promoting rate (rice; NaCl 0 g/L): 3.88 mg/day | Vitality index (rice; NaCl 0 g/L): 16.29% | Increase of root weight-promoting speed (rice; NaCl 0 g/L): 53.04% | Increase of root-shoot ratio (rice; NaCl 0 g/L): 25.31% | Increase of seedling weight-promoting rate (rice; NaCl 0 g/L): 19.27% | Average germination time (rice; NaCl 2.5 g/L): 3.28 D | Dry root weight (rice; NaCl 2.5 g/L): 0.0473 g/plant | Dry seedling weight (rice; NaCl 2.5 g/L): 0.0547 g | First leaf length (rice; NaCl 2.5 g/L): 3.79 cm | Germination energy (rice; NaCl 2.5 g/L): 96.7% | Germination index (rice; NaCl 2.5 g/L): 49.99% | Germination rate (rice; NaCl 2.5 g/L): 97.3% | Root length (rice; NaCl 2.5 g/L): 4.86 cm | Root number (rice; NaCl 2.5 g/L): 7.70 roots/plant | Root weight-promoting speed (rice; NaCl 2.5 g/L): 3.38 mg/day | Root-shoot ratio (rice; NaCl 2.5 g/L): 0.865 | Seedling height (rice; NaCl 2.5 g/L): 6.68 cm | Seedling weight-promoting rate (rice; NaCl 2.5 g/L): 3.90 mg/day | Vitality index (rice; NaCl 2.5 g/L): 14.38% | Increase of root weight-promoting speed (rice; NaCl 2.5 g/L): 23.48% | Increase of root-shoot ratio (rice; NaCl 2.5 g/L): 0.15% | Increase of seedling weight-promoting rate (rice; NaCl 2.5 g/L): 20% | Average germination time (rice; NaCl 4.5 g/L): 3.16 D | Dry root weight (rice; NaCl 4.5 g/L): 0.0480 g/plant | Dry seedling weight (rice; NaCl 4.5 g/L): 0.0580 g | First leaf length (rice; NaCl 4.5 g/L): 3.88 cm | Germination energy (rice; NaCl 4.5 g/L): 97.3% | Germination index (rice; NaCl 4.5 g/L): 50.89% | Germination rate (rice; NaCl 4.5 g/L): 97.3% | Root length (rice; NaCl 4.5 g/L): 5.00 cm | Root number (rice; NaCl 4.5 g/L): 7.17 roots/plant | Root weight-promoting speed (rice; NaCl 4.5 g/L): 3.43 mg/day | Root-shoot ratio (rice; NaCl 4.5 g/L): 0.836 | Seedling height (rice; NaCl 4.5 g/L): 6.71 cm | Seedling weight-promoting rate (rice; NaCl 4.5 g/L): 4.14 mg/day | Vitality index (rice; NaCl 4.5 g/L): 15.12% | Increase of root weight-promoting speed (rice; NaCl 4.5 g/L): 25.22% | Increase of root-shoot ratio (rice; NaCl 4.5 g/L): −3.17% | Increase of seedling weight-promoting rate (rice; NaCl 4.5 g/L): 27.32% | Change rate of chlorophyll content (rice seedlings; 0.002 ppm, Day 3): 9.49% | Chlorophyll content in rice leaves (rice seedlings; 0.002 ppm, Day 3): 3.69 mg/g | Change rate of chlorophyll content (rice seedlings; 0.002 ppm, Day 6): 42.96% | Chlorophyll content in rice leaves (rice seedlings; 0.002 ppm, Day 6): 3.86 mg/g | Change rate of chlorophyll content (rice seedlings; 0.05 ppm, Day 3): 29.67% | Chlorophyll content in rice leaves (rice seedlings; 0.05 ppm, Day 3): 4.37 mg/g | Change rate of chlorophyll content (rice seedlings; 0.05 ppm, Day 6): 63.70% | Chlorophyll content in rice leaves (rice seedlings; 0.05 ppm, Day 6): 4.42 mg/g
